Source: US9073873B2, “2-heterocyclylaminoalkyl-(p-quinone) derivatives for treatment of oxidative stress diseases” (Edison Pharmaceuticals, Inc., priority 2008, dated 2015)

What was measured:
Type in all cases: cell-based
[1] = test system: human dermal fibroblasts from Huntington's patients; assay: Rescue of fibroblasts from Huntington's patients from oxidative stress; details: Fibroblast, Huntington's cells GM 04281, read-out: protection against Huntington's, EC50
Method: (§1) An initial screen was performed to identify compounds effective for the amelioration of redox disorders. Test samples, 4 reference compounds (idebenone, decylubiquinone, Trolox and α-tocopherol acetate), and solvent controls were tested for their ability to rescue FRDA fibroblasts stressed by addition of L-buthionine-(S,R)-sulfoximine (BSO), as described in Jauslin et al., Hum. Mol. Genet. 11(24):3055 (2002), Jauslin et al., FASEB J. 17:1972-4 (2003), and International Patent Application WO 2004/003565. […] This specific BSO-mediated cell death can be prevented by administration of antioxidants or molecules involved in the antioxidant pathway, such as α-tocopherol, selenium, or small molecule glutathione peroxidase mimetics. However, antioxidants differ in their potency, i.e. the concentration at which they are able to rescue BSO-stressed FRDA fibroblasts.
(§2) Test samples were screened according to the following protocol: A culture with FRDA fibroblasts was started from a 1 ml vial with approximately 500,000 cells stored in liquid nitrogen. Cells were propagated in 10 cm cell culture dishes by splitting every third day in a ratio of 1:3 until nine plates were available. Once confluent, fibroblasts were harvested. For 54 micro titer plates (96 well-MTP) a total of 14.3 million cells (passage eight) were re-suspended in 480 ml medium, corresponding to 100 μl medium with 3,000 cells/well. The remaining cells were distributed in 10 cm cell culture plates (500,000 cells/plate) for propagation. The plates were incubated overnight at 37° C. in a atmosphere with 95% humidity and 5% CO2 to allow attachment of the cells to the culture plate.
(§3) MTP medium (243 μl) was added to a well of the microtiter plate. The test compounds were unfrozen, and 7.5 μl of a 5 mM stock solution was dissolved in the well containing 243 μl medium, resulting in a 150 μM master solution. Serial dilutions from the master solution were made. The period between the single dilution steps was kept as short as possible (generally less than 1 second).
(§4) Plates were kept overnight in the cell culture incubator. The next day, 10 μl of a 10 mM BSO solution were added to the wells, resulting in a 1 mM final BSO concentration. Forty-eight hours later, three plates were examined under a phase-contrast microscope to verify that the cells in the 0% control (wells E1-H1) were clearly dead. The medium from all plates was discarded, and the remaining liquid was removed by gently tapping the plate inversed onto a paper towel.
(§5) 100 μl of PBS containing 1.2 μM Calcein AM were then added to each well. The plates were incubated for 50-70 minutes at room temperature. After that time the PBS was discarded, the plate gently tapped on a paper towel and fluorescence (excitation/emission wavelengths of 485 nm and 525 nm, respectively) was read on a Gemini fluorescence reader. Data was imported into Microsoft Excel (EXCEL is a registered trademark of Microsoft Corporation for a spreadsheet program) and used to calculate the EC50 concentration for each compound.
Compounds of the invention were tested using a screen similar to the one described in Example A, but substituting FRDA cells with Huntington's cells obtained from the Coriell Cell Repositories (Camden, N.J.; repository number GM 04281). The compounds were tested for their ability to rescue human dermal fibroblasts from Huntington's patients from oxidative stress.

[2] = test system: Human dermal fibroblasts from Friedreich's Ataxia patients; assay: Rescue of BSO-stressed FRDA fibroblasts (Calcein AM viability); details: FRDA fibroblasts GM04078, BSO-stressed, read-out: protection against FRDA, EC50
Method: as §1
MEM (a medium enriched in amino acids and vitamins, catalog no. 1-31F24-I) and Medium 199 (M199, catalog no. 1-21F22-I) with Earle's Balanced Salts, without phenol red, were purchased from Bioconcept. Fetal Calf Serum was obtained from PAA Laboratories. Basic fibroblast growth factor and epidermal growth factor were purchased from PeproTech. Penicillin-streptomycin-glutamine mix, L-buthionine (S,R)-sulfoximine, (+)-α-tocopherol acetate, decylubiquinone, and insulin from bovine pancreas were purchased from Sigma. Trolox (6-Hydroxy-2,5,7,8-tetramethylchromane-2-carboxylic acid) was obtained from Fluka. Idebenone was obtained from Chemo Iberica. Calcein AM was purchased from Molecular Probes. Cell culture medium was made by combining 125 ml M199 EBS, 50 ml Fetal Calf Serum, 100 U/ml penicillin, 100 μg/ml streptomycin, 2 mM glutamine, 10 μg/ml insulin, 10 ng/ml EGF, and 10 ng/ml bFGF; MEM EBS was added to make the volume up to 500 ml. A 10 mM BSO solution was prepared by dissolving 444 mg BSO in 200 ml of medium (Invitrogen, Carlsbad, Ca.) with subsequent filter-sterilization. During the course of the experiments, this solution was stored at +4° C. The cells were obtained from the Coriell Cell Repositories (Camden, N.J.; repository number GM04078) and grown in 10 cm tissue culture plates. Every third day, they were split at a 1:3 ratio.
The test samples were supplied in 1.5 ml glass vials. The compounds were diluted with DMSO, ethanol or PBS to result in a 5 mM stock solution. Once dissolved, they were stored at −20° C. Reference antioxidants (idebenone, decylubiquinone, α-tocopherol acetate and Trolox) were dissolved in DMSO.
as §2, §3
Plates were kept overnight in the cell culture incubator. The next day, 10 μl of a 10 mM BSO solution were added to the wells, resulting in a 1 mM final BSO concentration. […]

[3] = test system: human dermal fibroblasts from CoQ10 deficient patients; assay: Rescue of fibroblasts from CoQ10 deficient patients from oxidative stress; details: Fibroblast, cells from CoQ10 deficient patients harboring a CoQ2 mutation, read-out: protection against CoQ10 deficiency, EC50
Method: as §1, §2, §3, §4, §5
Compounds of the invention were tested using a screen similar to the one described in Example A, but substituting FRDA cells with cells obtained from CoQ10 deficient patients harboring a CoQ2 mutation. The compounds were tested for their ability to rescue human dermal fibroblasts from CoQ10 deficient patients from oxidative stress.

[4] = test system: human dermal fibroblasts from LHON patients; assay: Rescue of fibroblasts from LHON patients from oxidative stress; details: Fibroblast, LHON cells GM03858, read-out: protection against LHON, EC50
Method: as §1, §2, §3, §4, §5
Compounds of the invention were tested using a screen similar to the one described in Example A, but substituting FRDA cells with Leber's Hereditary Optic Neuropathy (LHON) cells obtained from the Coriell Cell Repositories (Camden, N.J.; repository number GM03858). The compounds were tested for their ability to rescue human dermal fibroblasts from LHON patients from oxidative stress.

[5] = test system: human dermal fibroblasts from Parkinson's Disease patients; assay: Rescue of fibroblasts from Parkinson's Disease patients from oxidative stress; details: Fibroblast, PD cells AG20439, read-out: protection against PD, EC50
Method: as §1, §2, §3, §4, §5
Compounds of the invention were tested using a screen similar to the one described in Example A […], but substituting FRDA cells with Parkinson's Disease (PD) cells obtained from the Coriell Cell Repositories (Camden, N.J.; repository number AG20439). The compounds were tested for their ability to rescue human dermal fibroblasts from Parkinson's Disease patients from oxidative stress.

Measured: EC50

CC1=C(C)C(=O)C(CCNc2ncccn2)=C(C)C1=O [2,3,5-Trimethyl-6-(2-(pyrimidin-2-ylamino)ethyl)cyclohexa-2,5-diene-1,4-dione]
< 100 nM: [1] | [2] | [3] | [4] | [5]

CC1=C(C)C(=O)C(CCNc2nccc(C(F)(F)F)n2)=C(C)C1=O [2,3,5-Trimethyl-6-(2-(4-(trifluoromethyl)pyrimidin-2-ylamino)ethyl)cyclohexa-2,5-diene-1,4-dione]
< 100 nM: [1] | [2] | [3] | [4] | [5]

CC1=C(C)C(=O)C(CCNc2cc(C(F)(F)F)ccn2)=C(C)C1=O [2,3,5-Trimethyl-6-(2-(4-(trifluoromethyl)pyridin-2-ylamino)ethyl)cyclohexa-2,5-diene-1,4-dione]
< 100 nM: [1] | [2] | [3] | [4] | [5]

CC1=C(C)C(=O)C(CCNc2nccc(F)n2)=C(C)C1=O [2-(2-(4-Fluoropyrimidin-2-ylamino)ethyl)-3,5,6-trimethylcyclohexa-2,5-diene-1,4-dione]
< 100 nM: [1] | [2] | [3] | [4] | [5]

CC1=C(C)C(=O)C(CCNc2ncc(F)cn2)=C(C)C1=O [2-(2-(5-Fluoropyrimidin-2-ylamino)ethyl)-3,5,6-trimethylcyclohexa-2,5-diene-1,4-dione]
< 100 nM: [1] | [2] | [3] | [4] | [5]

CC1=C(C)C(=O)C(CCNc2ccc(C(F)(F)F)cn2)=C(C)C1=O [2,3,5-Trimethyl-6-(2-(5-(trifluoromethyl)pyridin-2-ylamino)ethyl)cyclohexa-2,5-diene-1,4-dione]
< 100 nM: [1] | [2] | [3] | [4] | [5]

CC1=C(C)C(=O)C(CCNc2ccccn2)=C(C)C1=O [2,3,5-Trimethyl-6-(2-(pyridin-2-ylamino)ethyl)cyclohexa-2,5-diene-1,4-dione]
< 100 nM: [1] | [2] | [3] | [4] | [5]

CC1=C(C)C(=O)C(CCNc2cccc(C(F)(F)F)n2)=C(C)C1=O [2,3,5-Trimethyl-6-(2-(6-(trifluoromethyl)pyridin-2-ylamino)ethyl)cyclohexa-2,5-diene-1,4-dione]
< 100 nM: [1] | [2] | [3] | [4] | [5]

CC1=C(C)C(=O)C(CCNc2ncccc2C(F)(F)F)=C(C)C1=O [2,3,5-Trimethyl-6-(2-(3-(trifluoromethyl)pyridin-2-ylamino)ethyl)cyclohexa-2,5-diene-1,4-dione]
< 100 nM: [1] | [2] | [3] | [4] | [5]
